In patent publication US20250170248A1, “SMARCA DEGRADERS AND USES THEREOF” (Kymera Therapeutics, Inc., priority 2021, published 2025):

Experiments:
Format in all cases: cell-based
SMARCA2 [1] = target: T1, SMARCA2 (Homo sapiens, UniProt P51531); assay: MSD SMARCA2 degradation in A549 cell line; settings: for Dmax: A549, A549 cells; for Dmax / DC50: 24 h; for DC50 / SMARCA2 MSD A549 degradation 24 h: Average Dmax %: A549 cells; for DC50: read-out: SMARCA2 MSD A549 degradation 24 h: Average external-Abs DC50
T1 sequence (P51531 whole entry): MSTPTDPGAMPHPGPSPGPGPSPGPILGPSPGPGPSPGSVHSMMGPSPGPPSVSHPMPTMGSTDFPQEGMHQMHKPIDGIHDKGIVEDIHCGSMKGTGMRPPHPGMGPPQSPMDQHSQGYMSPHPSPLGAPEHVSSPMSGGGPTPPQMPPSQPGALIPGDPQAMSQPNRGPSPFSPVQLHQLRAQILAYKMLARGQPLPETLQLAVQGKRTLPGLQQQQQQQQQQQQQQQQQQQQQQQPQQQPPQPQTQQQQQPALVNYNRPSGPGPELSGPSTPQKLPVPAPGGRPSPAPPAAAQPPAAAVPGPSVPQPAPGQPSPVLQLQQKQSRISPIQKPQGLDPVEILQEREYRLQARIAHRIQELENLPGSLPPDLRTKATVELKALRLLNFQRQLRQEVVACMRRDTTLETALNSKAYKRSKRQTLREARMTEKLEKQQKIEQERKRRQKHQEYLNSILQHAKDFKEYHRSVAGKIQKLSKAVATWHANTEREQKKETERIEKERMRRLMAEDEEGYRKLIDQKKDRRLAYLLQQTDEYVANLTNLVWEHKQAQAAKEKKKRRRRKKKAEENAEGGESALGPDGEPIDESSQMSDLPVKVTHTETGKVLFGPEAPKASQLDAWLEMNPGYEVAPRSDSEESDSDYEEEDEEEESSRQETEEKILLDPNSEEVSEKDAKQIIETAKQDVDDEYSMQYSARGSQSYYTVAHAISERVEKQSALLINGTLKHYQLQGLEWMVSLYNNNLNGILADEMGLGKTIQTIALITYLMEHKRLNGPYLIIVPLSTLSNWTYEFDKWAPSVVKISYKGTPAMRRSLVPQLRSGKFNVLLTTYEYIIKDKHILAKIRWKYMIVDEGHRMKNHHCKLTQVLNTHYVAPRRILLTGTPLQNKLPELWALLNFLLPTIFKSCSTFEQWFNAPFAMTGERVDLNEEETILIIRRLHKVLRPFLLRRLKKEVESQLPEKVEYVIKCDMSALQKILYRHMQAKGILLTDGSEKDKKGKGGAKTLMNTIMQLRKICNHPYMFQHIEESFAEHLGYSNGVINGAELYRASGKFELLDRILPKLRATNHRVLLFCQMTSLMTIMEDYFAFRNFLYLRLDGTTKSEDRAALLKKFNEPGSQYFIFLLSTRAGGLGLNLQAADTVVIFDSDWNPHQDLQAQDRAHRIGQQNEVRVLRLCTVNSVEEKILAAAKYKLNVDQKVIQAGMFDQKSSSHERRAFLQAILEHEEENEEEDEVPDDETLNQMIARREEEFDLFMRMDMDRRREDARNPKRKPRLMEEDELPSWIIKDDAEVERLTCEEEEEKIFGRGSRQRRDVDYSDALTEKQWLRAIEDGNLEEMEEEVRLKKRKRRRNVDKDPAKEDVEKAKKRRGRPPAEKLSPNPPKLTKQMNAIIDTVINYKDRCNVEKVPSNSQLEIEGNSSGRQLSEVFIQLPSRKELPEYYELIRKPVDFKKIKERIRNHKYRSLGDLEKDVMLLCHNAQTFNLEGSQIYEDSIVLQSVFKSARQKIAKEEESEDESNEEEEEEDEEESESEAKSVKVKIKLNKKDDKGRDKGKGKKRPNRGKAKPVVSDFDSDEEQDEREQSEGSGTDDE
Method in brief: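 A549 cells treated 24 h with compound, 3-fold series from 1000 nM. Lysates captured on MSD plates and SMARCA2 quantified with anti-SMARCA2 and SULFO-TAG secondary antibodies (electrochemiluminescence). DC50 and Dmax (% degradation at 24 h) reported as letter bins.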

SMARCA4 = target: T2, SMARCA4 (Homo sapiens, UniProt P51532); assay: SMARCA4 Western blot degradation in MV4-11 cells; settings: for Dmax: MV4-11, MV4-11 cells, read-out: SMARCA4 MSD MV411 degradation 24 h: average Dmax %; for Dmax / DC50: 24 h; for DC50 / SMARCA4 MSD MV411 degradation 24 h: average Dmax %: MV4-11 cells; for DC50: read-out: SMARCA4 MSD MV411 degradation 24 h: Mean external-Abs DC50
T2 construct: SMARCA2/SMARCA4 protein degradation selectivity in MV4-11 cells; endogenous in cells; host or cells: MV4-11
T2 sequence (P51532 whole entry): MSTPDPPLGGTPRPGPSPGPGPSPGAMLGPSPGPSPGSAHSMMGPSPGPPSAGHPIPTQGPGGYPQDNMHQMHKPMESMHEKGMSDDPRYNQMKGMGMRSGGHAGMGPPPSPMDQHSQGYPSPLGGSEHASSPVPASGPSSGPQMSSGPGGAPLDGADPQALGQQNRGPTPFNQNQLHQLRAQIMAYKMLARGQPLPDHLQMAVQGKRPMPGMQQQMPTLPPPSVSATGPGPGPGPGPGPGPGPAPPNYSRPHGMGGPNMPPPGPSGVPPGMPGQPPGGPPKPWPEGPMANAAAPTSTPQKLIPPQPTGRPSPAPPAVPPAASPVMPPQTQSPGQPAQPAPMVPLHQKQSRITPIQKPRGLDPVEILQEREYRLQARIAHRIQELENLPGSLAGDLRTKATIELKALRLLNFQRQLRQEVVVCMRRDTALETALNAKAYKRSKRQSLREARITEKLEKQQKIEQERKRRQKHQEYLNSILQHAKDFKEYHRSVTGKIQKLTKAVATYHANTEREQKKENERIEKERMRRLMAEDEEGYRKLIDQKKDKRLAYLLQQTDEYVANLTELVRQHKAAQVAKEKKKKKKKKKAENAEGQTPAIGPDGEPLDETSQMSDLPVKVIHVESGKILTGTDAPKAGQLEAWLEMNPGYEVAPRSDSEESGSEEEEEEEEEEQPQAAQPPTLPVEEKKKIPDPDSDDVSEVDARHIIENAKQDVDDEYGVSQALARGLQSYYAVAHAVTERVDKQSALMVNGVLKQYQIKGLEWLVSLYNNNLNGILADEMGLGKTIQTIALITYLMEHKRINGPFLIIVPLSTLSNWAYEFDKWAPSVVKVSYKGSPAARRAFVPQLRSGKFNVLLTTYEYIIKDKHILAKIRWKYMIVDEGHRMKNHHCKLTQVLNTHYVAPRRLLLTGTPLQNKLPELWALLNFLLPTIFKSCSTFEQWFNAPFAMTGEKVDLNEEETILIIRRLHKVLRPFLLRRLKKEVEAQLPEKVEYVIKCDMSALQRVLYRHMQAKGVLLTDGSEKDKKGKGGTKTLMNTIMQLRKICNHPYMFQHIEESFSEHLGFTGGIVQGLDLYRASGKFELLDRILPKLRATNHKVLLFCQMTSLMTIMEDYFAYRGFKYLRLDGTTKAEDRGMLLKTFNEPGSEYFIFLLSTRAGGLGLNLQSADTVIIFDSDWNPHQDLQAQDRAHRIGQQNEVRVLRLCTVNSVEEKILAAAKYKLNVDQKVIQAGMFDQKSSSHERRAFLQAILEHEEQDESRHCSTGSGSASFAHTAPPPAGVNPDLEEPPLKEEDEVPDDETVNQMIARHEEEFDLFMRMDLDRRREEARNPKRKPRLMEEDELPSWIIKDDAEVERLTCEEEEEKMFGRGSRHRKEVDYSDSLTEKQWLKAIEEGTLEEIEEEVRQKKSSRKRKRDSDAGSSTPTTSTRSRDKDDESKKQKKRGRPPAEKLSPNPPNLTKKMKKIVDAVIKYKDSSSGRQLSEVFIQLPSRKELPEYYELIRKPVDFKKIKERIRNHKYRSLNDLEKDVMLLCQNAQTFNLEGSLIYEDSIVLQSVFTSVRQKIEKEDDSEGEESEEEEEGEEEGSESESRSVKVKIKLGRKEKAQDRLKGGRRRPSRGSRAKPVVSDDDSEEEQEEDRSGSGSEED
Method in brief: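 MV4-11 cells (4×10^6/well) treated with compound for 24 h, lysed in RIPA with protease/phosphatase inhibitors, and SMARCA2, SMARCA4 and beta-actin detected by Western blot with LI-COR readout. Values reported as letter-coded DC50, 24 h Dmax % and SMARCA2/4 selectivity fold.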

SMARCA2 [2] = target: T1, SMARCA2; assay: SMARCA2 Western blot degradation in MV4-11 cells; parameters: SMARCA2/SMARCA4 protein degradation selectivity in MV4-11 cells; endogenous in cells; host or cells: MV4-11; settings: for Dmax: MV4-11, MV4-11 cells, read-out: SMARCA2 MSD MV411 degradation 24 h: average Dmax %; for Dmax / DC50 / SMARCA2 MSD MV411 degradation 24 h: average Dmax %: 24 h; for DC50 / Selectivity in MV411 / SMARCA2 MSD MV411 degradation 24 h: average Dmax %: MV4-11 cells; for DC50: read-out: SMARCA2 MSD MV411 degradation 24 h: Mean external-Abs DC50; for Selectivity in MV411: SMARCA2/4 selectivity

SMILES	Dmax (SMARCA2 [1])	DC50 (SMARCA2 [1])	Dmax (SMARCA4)	DC50 (SMARCA4)	Dmax (SMARCA2 [2])	DC50 (SMARCA2 [2])	Selectivity in MV411 (SMARCA2 [2])	SMARCA2 MSD A549 degradation 24 h: Average Dmax % (SMARCA2 [1])	SMARCA4 MSD MV411 degradation 24 h: average Dmax % (SMARCA4)	SMARCA2 MSD MV411 degradation 24 h: average Dmax % (SMARCA2 [2])
C#Cc1ccc([C@H](C)NC(=O)[C@@H]2C[C@@H](O)CN2C(=O)[C@@H](NC(=O)N2CC3(CC(N4CCC(c5cnc(N6CCc7[nH]c8nnc(-c9ccccc9O)cc8c7[C@H]6CO)nc5)CC4)C3)C2)C(C)(C)C)cc1 [I-321]	> 90%	0.01 to 0.05 µM	< 50%	> 0.1 µM	70 to 90%	0.001 to 0.01 µM	A (A (>500 fold))			
C#Cc1ccc(CNC(=O)[C@@H]2C[C@@H](O)CN2C(=O)[C@@H](NC(=O)[C@H]2CCC3(CC2)C[C@H](N2CCC(c4cnc(N5CCN6c7cc(-c8ccccc8O)nnc7NC[C@H]6C5)nc4)CC2)C3)C(C)(C)C)c(OCCCOC)c1 (single isomer, unassigned) [I-149]		0.01 to 0.05 µM		0.01 to 0.1 µM		0.001 to 0.01 µM	D (D (<10 fold))	A (A (>90% degradation))	A (A (>90% degradation))	A (A (>90% degradation))
C#Cc1ccc(CNC(=O)[C@@H]2C[C@@H](O)CN2C(=O)[C@@H](NC(=O)[C@H]2CC3(C2)C[C@H](N2CCC(N4CCC(N5CCN6c7cc(-c8ccccc8O)nnc7NC[C@H]6C5)CC4)CC2)C3)C(C)(C)C)c(Cl)c1 (single isomer, unassigned) [I-230]		0.01 to 0.05 µM		> 0.1 µM		0.001 to 0.01 µM	B (B (>100-500 fold))	A (A (>90% degradation))	C (C (50-70% degradation))	B (B (>70-90% degradation))
C#Cc1ccc(CNC(=O)[C@@H]2C[C@@H](O)CN2C(=O)[C@@H](NC(=O)CN2CCC(N3CC4(CC(N5CCN6c7cc(-c8ccccc8O)nnc7NC[C@H]6C5)C4)C3)CC2)C(C)(C)C)cc1 [I-252, (2S,4R)—N-(4-ethynylbenzyl)-4-hydroxy-1-((S)-2-(2-(4-(6-((S)-2-(2-hydroxyphenyl)-6a,7,9,10-tetrahydro-5H-pyrazino[1′,2′:4,5]pyrazino[2,3-c]pyridazin-8(6H)-yl)-2-azaspiro[3.3]heptan-2-yl)piperidin-1-yl)acetamido)-3,3-dimethylbutanoyl)pyrrolidine-2-carboxamide]	> 90%	0.05 to 0.1 µM	> 90%	0.001 to 0.01 µM	> 90%	< 0.001 µM	D (D (<10 fold))			
C#Cc1ccc(CNC(=O)[C@@H]2C[C@@H](O)CN2C(=O)[C@@H](NC(=O)N2CCN(C[C@H]3CCN(c4cnc(N5CCc6[nH]c7nnc(-c8ccccc8O)cc7c6[C@H]5C)nc4)C3)CC2)C(C)(C)C)cc1 (single isomer, unassigned) [I-162]	> 90%	> 0.1 µM	50 to 70%	> 0.1 µM	50 to 70%	0.01 to 0.1 µM	C (C (10-100 fold))			
C#Cc1ccc(CNC(=O)[C@@H]2C[C@@H](O)CN2C(=O)[C@@H](NC(=O)N2CC3(CN(CC4CCN(c5cnc(N6CCc7[nH]c8nnc(-c9ccccc9O)cc8c7[C@H]6C)nc5)CC4)C3)C2)C(C)(C)C)cc1 [I-164]	> 90%	> 0.1 µM	< 50%	> 0.1 µM	70 to 90%	0.01 to 0.1 µM	B (B (>100-500 fold))			
C#Cc1ccc([C@H](C)NC(=O)[C@@H]2C[C@@H](O)CN2C(=O)[C@@H](NC(=O)[C@H]2CCC3(CC2)C[C@H](N2CCN(c4cnc(N5CCN6c7cc(-c8ccccc8O)nnc7NC[C@H]6C5)nc4)CC2)C3)C(C)(C)C)cc1 (single isomer, unassigned) [I-233]	> 90%	0.01 to 0.05 µM	50 to 70%	> 0.1 µM	70 to 90%	0.001 to 0.01 µM	C (C (10-100 fold))			
Cc1ncsc1-c1ccc(CNC(=O)[C@@H]2C[C@@H](O)CN2C(=O)C(c2cc(OCCN3CCC(N4CCC(c5cnc(N6CCc7[nH]c8nnc(-c9ccccc9O)cc8c7[C@@H]6C)nc5)CC4)CC3)no2)C(C)C)cc1 (single isomer, unassigned) [I-41]	70 to 90%	0.05 to 0.1 µM	> 90%	0.01 to 0.1 µM	> 90%	< 0.001 µM	D (D (<10 fold))			
C#Cc1ccc(CNC(=O)[C@@H]2C[C@@H](O)CN2C(=O)[C@@H](NC(=O)N2CC3(CC(c4cnc(N5CCC(N6CCN7c8cc(-c9ccccc9O)nnc8NC[C@H]7C6)CC5)nc4)C3)C2)C(C)(C)C)cc1 [I-276]	> 90%	< 0.01 µM	> 90%	0.01 to 0.1 µM	> 90%	0.001 to 0.01 µM	C (C (10-100 fold))			
C#Cc1ccc(CNC(=O)[C@@H]2C[C@@H](O)CN2C(=O)[C@@H](NC(=O)[C@H]2CCC3(CC2)C[C@H](N2CCN(c4cnc(N5CCN6c7cc(-c8ccccc8O)nnc7NC[C@H]6C5)nc4)CC24CC4)C3)C(C)(C)C)cc1 (stereo partly drawn) [I-266]	> 90%	0.05 to 0.1 µM	50 to 70%	> 0.1 µM	> 90%	0.01 to 0.1 µM	C (C (10-100 fold))			
C#Cc1ccc(CNC(=O)[C@@H]2C[C@@H](O)CN2C(=O)[C@H](NC(=O)N2CC3(CC(N4CCC(c5cnc(N6CCc7[nH]c8nnc(-c9ccccc9O)cc8c7[C@H]6C)nc5)CC4)C3)C2)C(C)(C)CCN2CCN[C@H](C(=O)O)C2)cc1 [I-343]	< 50%	> 0.1 µM	< 50%	> 0.1 µM	< 50%	> 0.1 µM	C (C (10-100 fold))			

Other lines, results leading:

Dmax (SMARCA2 [1])	DC50 (SMARCA2 [1])	Dmax (SMARCA4)	DC50 (SMARCA4)	Dmax (SMARCA2 [2])	DC50 (SMARCA2 [2])	Selectivity in MV411 (SMARCA2 [2])	SMARCA2 MSD A549 degradation 24 h: Average Dmax % (SMARCA2 [1])	SMARCA4 MSD MV411 degradation 24 h: average Dmax % (SMARCA4)	SMARCA2 MSD MV411 degradation 24 h: average Dmax % (SMARCA2 [2])	SMILES
> 90%	> 0.1 µM	50 to 70%	> 0.1 µM	70 to 90%	0.01 to 0.1 µM	C (C (10-100 fold))				C#Cc1ccc(CNC(=O)[C@@H]2C[C@@H](O)CN2C(=O)[C@@H](NC(=O)N2CC3(CC(N4CC(N5CCC(c6cnc(N7CCc8[nH]c9nnc(-c%10ccccc%10O)cc9c8[C@H]7C)nc6)CC5)C4)C3)C2)C(C)(C)C)cc1 [I-268]
> 90%	0.01 to 0.05 µM	70 to 90%	> 0.1 µM	> 90%	0.01 to 0.1 µM	C (C (10-100 fold))				C#Cc1ccc(CNC(=O)[C@@H]2C[C@@H](O)CN2C(=O)[C@@H](NC(=O)N2CC3(CC(N4CCC(c5cnc(N6CCc7[nH]c8nnc(-c9ccccc9O)cc8c7[C@H]6C)nc5)CC4)C3)C2)C(C)(C)C)cc1Cl [I-309]
	0.01 to 0.05 µM		0.01 to 0.1 µM		0.001 to 0.01 µM	C (C (10-100 fold))	A (A (>90% degradation))	B (B (>70-90% degradation))	A (A (>90% degradation))	Cc1ncsc1-c1ccc(CNC(=O)[C@@H]2C[C@@H](O)CN2C(=O)[C@@H](NC(=O)[C@H]2CC3(CC[C@H](N4CCN(c5ccnc(N6CCc7[nH]c8nnc(-c9ccccc9O)cc8c7[C@H]6C)n5)CC4)CC3)C2)C(C)(C)C)cc1 (single isomer, unassigned) [I-81]
70 to 90%	> 0.1 µM	> 90%	> 0.1 µM	50 to 70%	0.01 to 0.1 µM	C (C (10-100 fold))				Cc1ncsc1-c1ccc(CNC(=O)[C@@H]2C[C@@H](O)CN2C(=O)[C@@H](NC(=O)C2(F)CC2)C(C)(C)C)c(O[C@H]2CC[C@@H](N3CCC(N4CCC(c5cnc(N6CCc7[nH]c8nnc(-c9ccccc9O)cc8c7[C@@H]6C)nc5)CC4)CC3)CC2)c1 (single isomer, unassigned) [I-48]
> 90%	0.05 to 0.1 µM	50 to 70%	> 0.1 µM	70 to 90%	0.01 to 0.1 µM	B (B (>100-500 fold))				Cc1ncsc1-c1ccc(CNC(=O)[C@@H]2C[C@@H](O)CN2C(=O)[C@@H](NC(=O)C2(F)CC2)C(C)(C)C)c(O[C@H]2CC[C@@H](N3CCC(c4cnc(N5CCc6[nH]c7nnc(-c8ccccc8O)cc7c6[C@H]5C)nc4)CC3)CC2)c1 (single isomer, unassigned) [I-31]
> 90%	> 0.1 µM	< 50%	> 0.1 µM	70 to 90%	0.001 to 0.01 µM	A (A (>500 fold))				Cc1ncsc1-c1ccc(CNC(=O)[C@@H]2C[C@@H](O)CN2C(=O)[C@@H](NC(=O)C2CC3(C2)CC(N2CCC(N4CCC(N5CCN6c7cc(-c8ccccc8O)nnc7NC[C@H]6C5)CC4)CC2)C3)C(C)(C)C)cc1 (stereo partly drawn) [I-75]
> 90%	0.01 to 0.05 µM	> 90%	0.01 to 0.1 µM	> 90%	0.001 to 0.01 µM	D (D (<10 fold))				Cc1ncsc1-c1ccc(CNC(=O)[C@@H]2C[C@@H](O)CN2C(=O)C(c2cc(N3CC4(CC(N5CCC(c6cnc(N7CCc8[nH]c9nnc(-c%10ccccc%10O)cc9c8[C@@H]7C)nc6)CC5)C4)C3)no2)C(C)C)cc1 (stereo partly drawn) [I-11]
